Measurements as given in PubChem BioAssay (NCI).
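Step 1: Grow cells in 96-well plates. Step 2: Expose to compound for 48 hours at 5 concentrations. Step 3: Interpolate endpoints linearly; if unreached, use highest concentration. TGI denotes the concentration required for complete inhibition of growth.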

Assays:
Assay in all cases: inhibition of tumour cell growth, NCI panel, 48 h
A498 renal = test system: A498 renal
A549 NSCLC = test system: A549 NSCLC
HL-60(TB) leukemia = test system: HL-60(TB) leukemia
LOX IMVI melanoma = test system: LOX IMVI melanoma
MALME-3M melanoma = test system: MALME-3M melanoma
MCF7 breast = test system: MCF7 breast
NCI-H23 lung = test system: NCI-H23 lung
SK-MEL-5 melanoma = test system: SK-MEL-5 melanoma
TK-10 renal = test system: TK-10 renal
UACC-62 melanoma = test system: UACC-62 melanoma

| SMILES | TGI (A498 renal) [µM] | TGI (A549 NSCLC) [µM] | TGI (HL-60(TB) leukemia) [µM] | TGI (LOX IMVI melanoma) [µM] | TGI (MALME-3M melanoma) [µM] | TGI (MCF7 breast) [µM] | TGI (NCI-H23 lung) [µM] | TGI (SK-MEL-5 melanoma) [µM] | TGI (TK-10 renal) [µM] | TGI (UACC-62 melanoma) [µM] |
| --- | --- | --- | --- | --- | --- | --- | --- | --- | --- | --- |
| Cc1nnc(SCc2nc(C#N)c(C#N)nc2CSc2nnc(C)s2)s1 | > 66.5 | > 100 | 7.74 | 23.3 | 13 | 34.3 | 45 | 29.2 | 16.3 | 30.7 |
| O=C(Nc1cccc2ccccc12)c1cc2ccccc2oc1=O | > 100 | > 100 | > 100 | > 100 | > 100 | > 100 | > 100 | > 100 |  | > 100 |
| Cc1cc(-c2ccc(N=Nc3ccc4c(S(=O)(=O)O)cc(S(=O)(=O)O)c(N)c4c3O)c(C)c2)ccc1N=Nc1ccc2c(S(=O)(=O)O)cc(S(=O)(=O)O)c(N)c2c1O | > 100 | > 100 | > 100 | > 100 | > 100 | > 100 | > 100 | > 100 |  | > 100 |
| O=C1/C(=C\c2cccc(Oc3ccccc3)c2)SC(c2ccccc2)N1c1cc(Cl)ccc1Cl (configuration not stated) | > 100 | > 100 | 48.1 | 38.2 | 89.7 | > 100 | > 100 | > 100 | > 100 | > 100 |
| CC1(C)CCC[C@@]2(C)C1CC[C@@]1(CO)O[C@H](C3=CC(=O)OC3O)C[C@H]12 (some centres not stated) | 30.1 | > 86.1 | 4.31 | 3.42 | 24.2 | 26.7 | 26.6 | 20.9 | 34.4 | 15.3 |
| CC(=O)Oc1cc2c(cc1OCC(F)(F)F)[C@H]1CC[C@]3(C)[C@@H](OC(C)=O)CC[C@H]3[C@@H]1CC2=O | 27 | 77.7 | 34.7 | > 78 | 47.9 | > 75.6 | > 68.8 | 49.2 | 46.2 | 42.6 |
| [N-]=[N+]=CC(=O)C1CCN(c2ccccc2)C1=O (configuration not stated) | > 10 | > 10 | > 10 | > 10 | > 10 | > 10 | > 10 | > 10 | > 10 | > 10 |
| C/C(=N\NC(=S)NC(C)(C)C)c1nc2ncccc2[nH]1 | > 100 | 43.4 | > 21.6 | > 100 | 60.4 | > 100 | > 100 | 14.1 | > 100 | 46.7 |
| CC1(C)C(=O)/C(=C/c2ccccc2)C(C)(C)C1(C)C | > 96.2 | > 100 | 46.7 | > 100 | > 100 | > 100 | > 100 | > 100 | > 100 | > 100 |
| Cc1ccc(C(=O)Nc2ccc(CP(=O)(O)O)cc2CP(=O)(O)O)cc1N | > 100 | > 100 | > 100 | > 100 | > 100 | > 100 | > 100 | > 100 | > 100 | > 100 |
| [C-]#[O+].[Cl][Sn]([Cl])[Cl].[Cl][Sn]([Cl])[Cl].[Pt].c1cnc2c(c1)ccc1cccnc12 | 13.3 | > 100 | 7.95 | 15.8 | > 100 | 56.4 | > 100 | 13.4 |  | > 22.4 |
| C[n+]1c2ccccc2n2c3ccccc3c(NCCCn3ccnc3)c(C#N)c21 | 46.5 | 32.2 | 20.3 | 2.51 | 4.5 | > 34 | 9.13 | 13.1 | 59.5 | 17.6 |
| COc1ccc(S(=O)(=O)NC(CCC(=O)NC(N)=O)C(=O)NC(N)=O)cc1 (configuration not stated) | > 100 | > 100 | > 100 | > 100 | > 100 | > 100 | > 100 | > 100 | > 100 | > 100 |
| CC(=O)O[C@H]1CC[C@@H](OC(C)=O)[C@H]2[C@H](O)[C@H](O)[C@@H]1n1c(=O)n(-c3ccccc3)c(=O)n12 | > 100 | > 100 | > 100 | > 100 | > 100 | > 100 | > 100 | > 100 | > 100 | > 100 |
| CC(C)Oc1cccc(N2C(CCc3c[nH]c4ccc(Br)cc34)=NS(=O)(=O)c3cnccc32)c1 | > 100 | > 100 | > 100 | > 100 | > 100 | > 100 | > 100 | > 100 | > 100 | > 100 |
| O=c1[nH]c2c(Nc3c4ccccc4nc4ccccc34)c([N+](=O)[O-])c(Nc3c4ccccc4nc4ccccc34)c([N+](=O)[O-])c2[nH]1 | 3.35 | 3.56 | > 23.7 | 7.79 | 3.33 | 10.2 | 2.74 | 4 | > 22.5 | 3.32 |
